Data published in patent US11149277B2, “Method of producing enriched exosomes” (National Health Research Institutes, priority 2016, dated 2021).

System: MDA-MB-231 cells
Assay: NTA and EV protein of CM-P4 fractions of MDA-MB-231 cells
Format: cell-based, human
From the text: (A) Quantification of EV/exosome release, shown as the number of particles in the CM-P4 fractions released per cell, from MCF-7 and MDA-MB-231 breast cancer cells treated with vehicle or with the indicated concentrations of GW627368X. Particles in the P4 fractions were counted using nanoparticle tracking analysis. Data are means±SEM (n=10). *P≤0.05, ***P≤0.001. (B) Quantification of the total EV protein released from MCF-7 and MDA-MB-231 cells treated with vehicle or with the indicated concentrations of GW627368X. The amounts (m) of protein present per cell in the conditioned medium P4 fractions are presented as means±SEM (n=3). *P≤0.05; (C) Protein levels in the P4 EV/exosome fractions and cell lysates, analyzed by Western blot. Culture media and cell lysates were collected from the same numbers of MCF-7 and MDA-MB-231 cells treated with vehicle or with GW627368X (GW), at the indicated concentrations, for 4 days. The P4 fractions of the culture media, containing EVs, were isolated. […]
We next examined whether blocking EP4-mediated signaling with an EP4 antagonist can elicit EV-mediated removal of CSC proteins (e.g., mesenchymal markers and stem cell markers) in the human breast carcinoma MCF-7 and MDA-MB-231 cell lines. P4 fractions from the conditioned media (CM-P4) of GW-treated MCF-7 and MDA-MB-231 cells were analyzed using NTA (FIG. 21, A). […]

CCOc1c2c(c(OCC)c3ccccc13)C(=O)N(c1ccc(CC(=O)NS(=O)(=O)c3ccccc3)cc1)C2 [GW627368X]
amount of protein per cell in the EV/exosome fraction (GW-treated MDA-MB-231): 10 fold
numbers of EVs released (increasing concentrations of GW): modestly increased
